# Where a name gives a salt, the structure may show the parent alone. Read-outs that look alike come from different tables or passages of the source.
# Columns and labels:
# plasma proteins [1] = format: in vitro ADME; settings: human, plasma (ultrafiltration)
# plasma proteins [2] = test: Free fraction by stable isotope dilution LC/MS/MS assay; settings: human, plasma (ultrafiltration)
# [3] = normal subjects; LC/MS/MS assay; mean±sd
Compound,fraction unbound (plasma proteins [1]),fraction unbound (plasma proteins [2]),Plasma Free Concentration [3]
"Cn1c(=O)c2c([nH]c(=O)n2C)n(C)c1=O [1,3,7-Trimethyluric acid]",0.09 ± 0.03,–,–
O=C(O)CNC(=O)c1ccccc1 [Hippurate],0.27 ± 0.05,0.41 ± 0.02,1.5 ± 0.9 µM
Cc1ccc(OS(=O)(=O)O)cc1 [p-Cresol sulfate],–,–,0.46 ± 0.26 µM
NC(N)=O [Urea],–,–,2.4 ± 0.6×10^3 μM
O=C(O)CCCCCCC(=O)O [Suberic acid],0.07 ± 0.02,–,–
CC(CC(=O)O)C(=O)O (stereo not drawn) [Methylsuccinic acid],0.11 ± 0.04,–,–
O=C(O)CCCCC(=O)O [Adipic acid],0.04 ± 0.01,–,–
O=C(O)CNC(=O)c1ccco1 [2-Furoylglycine],0.49,–,–
"Cn1c(=O)[nH]c2[nH]c(=O)n(C)c2c1=O [1,7-Dimethyluric acid]",0.39 ± 0.3,–,–
CN1CC(=O)NC1=N [Creatinine],–,–,74 ± 13 µM
O=S(=O)(O)Oc1c[nH]c2ccccc12 [Indoxyl sulfate],0.02 ± 0.01,0.027 ± 0.004,0.13 ± 0.05 µM

# Reference: paper PMC3758437 (Kidney international, 2013)
